Measurements reported in patent publication US10551313B1, “Surface plasmon resonance based mechanical sensing of beating heart cells” (The Florida International University Board of Trustees, priority 2019, dated 2020).

Tested on: living cardiomyocytes
Assay: SPR based sensing of beating (cardiac activity) of cardiomyocytes cultured on the SPR sensing surface
Format: cell-based, rat
Details: injection of 10 μM, SPR resonance angle shift vs time, compared with control group without injection (FIG. 5)
Source text: In one particular embodiment, rat cardiomyocytes were isolated from neonatal rat hearts from day one through day three and cultured on the SPR sensing surface 100 of the SPR based sensing system. Subsequently, the spontaneous contractions, expansions, or movements of the rat cardiomyocytes under normal living conditions were monitored by using the SPR based sensing system. In an embodiment, the SPR based sensing system can sense the beating characteristics of the living cardiomyocytes after the living cardiomyocytes is stimulated by an injection of a stimulator such as, for example, adenosine triphosphate (ATP). In another embodiment, the SPR based sensing system can sense the beating characteristics of the living cardiomyocytes after the living cardiomyocytes is inhibited by an injection of an inhibitor such as, for example, blebbistatin.

## Nc1ncnc2c1ncn2[C@@H]1O[C@H](COP(=O)(O)OP(=O)(O)OP(=O)(O)O)[C@@H](O)[C@H]1O [ATP, adenosine triphosphate]
  cardiac activity (beating frequency) of the cardiomyocytes: higher cardiac activity (faster beats with frequencies higher than the baseline frequencies)

## Cc1ccc2c(c1)C(=O)C1(O)CCN(c3ccccc3)C1=N2 (centres unmarked) [blebbistatin]
  cardiac activity (beating frequency) of the cardiomyocytes: lower cardiac activity (slower beats with frequencies lower than the baseline frequencies)
